Measured values: patent publication US8455665B2, “3-phenoxymethylpyrrolidine compounds” (Theravance, Inc., priority 2009, dated 2013)

Columns and labels:
Set-up in all cases: expressed in transfected cells; host or cells: HEK-293
SERT [1] = molecular target: T1, SERT (Homo sapiens, UniProt P31645); assay: hSERT membrane radioligand binding assay (3H-citalopram); details: hSERT membranes (HEK-293), 1.0 nM 3H-citalopram; for Ki: read-out: SERT pKi (converted)
Protocol: (§1) Membrane radioligand binding assays were used to measure inhibition of labeled ligand (^3H-citalopram or ^3H-nisoxetine or ^3H-WIN35428) binding to membranes prepared from cells expressing the respective human recombinant transporter (hSERT or hNET or hDAT) in order to determine the pKi values of test compounds at the transporters.
(§2) Recombinant human embryonic kidney (HEK-293) derived cell lines stably transfected with hSERT or hNET, respectively, were grown in DMEM medium supplemented with 10% dialyzed FBS (for hSERT) or FBS (for hNET), 100 μg/ml penicillin, 100 μg/ml streptomycin, 2 mM L-glutamine and 250 μg/ml of the aminoglycoside antibiotic G418, in a 5% CO2 humidified incubator at 37° C. When cultures reached 80% confluence, the cells were washed thoroughly in PBS (without Ca^2+ and Mg^2+) and lifted with 5 mM EDTA in PBS. Cells were pelleted by centrifugation, resuspended in lysis buffer (10 mM Tris-HCl, pH7.5 containing 1 mM EDTA), homogenized, pelleted by centrifugation, then resuspended in 50 mM Tris-HCl, pH 7.5 and 10% sucrose at 4° C. Protein concentration of the membrane suspension was determined using a Bio-Rad Bradford Protein Assay kit. Membranes were snap frozen and stored at −80° C. Chinese hamster ovary membranes expressing hDAT (CHO-DAT) were purchased from PerkinElmer and stored at −80° C.
(§3) Binding assays were performed in a 96-well assay plate in a total volume of 200 μl assay buffer (50 mM Tris-HCl, 120 mM NaCl, 5 mM KCl, pH 7.4) with 0.5, 1, and 3 μg membrane protein, for SERT, NET and DAT, respectively.
(§4) Stock solutions (10 mM in DMSO) of test compound were prepared and serial dilutions made using Dilution Buffer (50 mM Tris-HCl, 120 mM NaCl, 5 mM KCl, pH 7.4, 0.1% BSA, 400 μM ascorbic acid). Non-specific radioligand binding was determined in the presence of 1 μM duloxetine, 1 μM desipramine or 10 μM GBR12909 (each in Dilution Buffer) for the hSERT, hNET or hDAT assays, respectively.
(§5) Following a 60 minute incubation at 22° C. (or a period sufficient to reach equilibrium), the membranes were harvested by rapid filtration over a 96-well UniFilter GF/B plate, pretreated with 0.3% polyethyleneimine, and washed 6 times with […] (50 mM Tris-HCl, 0.9% NaCl, pH 7.5 at 4° C.). Plates were dried overnight at room temperature, approximately […] of MicroScint™-20 (Perkin Elmer) added and bound radioactivity quantitated via liquid scintillation spectroscopy. Inhibition curves and saturation isotherms were analyzed using GraphPad Prism Software package (GraphPad Software, Inc., San Diego, Calif.). IC50 values were generated from concentration response curves using the Sigmoidal Dose Response (variable slope) algorithm in Prism GraphPad. Kd and Bmax values for the radioligand were generated from saturation isotherms using the Saturation Binding Global Fit algorithm in Prism GraphPad. pKi (negative decadic logarithm of Ki) values for test compounds were calculated from the best-fit IC50 values, and the Kd value of the radioligand, using the Cheng-Prusoff equation (Cheng & Prusoff (1973) Biochem. Pharmacol. 22(23):3099-3108): Ki=IC50/(1+[L]/Kd), where [L]=concentration radioligand.

SERT [2] = molecular target: T1, SERT; assay: hSERT neurotransmitter uptake assay (3H-5-HT); format: cell-based; details: serotonin reuptake inhibition, HEK-293 hSERT cells, 3H-5-HT (no asterisk); read-out: SERT pIC50 (converted)
Protocol: (§6) Neurotransmitter uptake assays were used to measure inhibition of ^3H-serotonin (^3H-5-HT), ^3H-norepinephrine (^3H-NE), and ^3H-dopamine (^3H-DA) uptake into cells expressing the respective transporter (hSERT, hNET or hDAT) in order to determine the pIC50 values of test compounds at the transporters.
(§7) HEK-293 derived cell lines stably-transfected with hSERT, hNET, or hDAT, respectively, were grown in DMEM medium supplemented with 10% dialyzed FBS (for hSERT) or FBS (for hNET and hDAT), 100 μg/ml penicillin, 100 μg/ml streptomycin, 2 mM L-glutamine and 250 μg/ml of the aminoglycoside antibiotic G418 (for hSERT and hNET) or 800 ug/ml (for hDAT), in a 5% CO2 humidified incubator at 37° C. When cultures reached 80% confluence, the cells were washed thoroughly in PBS (without Ca^2+ and Mg^2+) and lifted with 5 mM EDTA in PBS. Cells were harvested by centrifugation at 1100 rpm for 5 minutes, washed once by resuspension in PBS, then centrifuged. The supernatant was discarded and the cell pellet resuspended, by gentle trituration, in room temperature Krebs-Ringer bicarbonate buffer containing HEPES (10 mM), CaCl2 (2.2 mM), ascorbic acid (200 μM) and pargyline (200 μM), pH 7.4. The final concentration of cells in the cell suspension was 7.5×10^4 cells/ml, 1.25×10^5 cells/ml, and 5.0×10^4 cells/ml for SERT, NET, and DAT cell lines, respectively.
(§8) Neurotransmitter uptake assays were performed in a 96-well assay plate in a total volume of 400 μl assay buffer (Krebs-Ringer bicarbonate buffer containing HEPES (10 mM), CaCl2 (2.2 mM), ascorbic acid (200 μM) and pargyline (200 μM), pH 7.4) with 1.5×10^4 and 2.5×10^4 cells, for SERT, NET, and DAT, respectively. […] Stock solutions (10 mM in DMSO) of test compound were prepared and serial dilutions prepared using 50 mM Tris-HCl, 120 mM NaCl, 5 mM KCl, pH 7.4, 0.1% BSA, 400 μM ascorbic acid. Test compounds were incubated for 30 minutes at 37° C. with the respective cells, prior to addition of radiolabeled neurotransmitter, ^3H-5-HT (20 nM final concentration), ^3H-NE (50 nM final concentration) or ^3H-DA (100 nM final concentration). Non-specific neurotransmitter uptake was determined in the presence of 2.5 μM duloxetine, 2.5 μM desipramine, or 10 uM GBR-12909 (each in Dilution Buffer) for the hSERT, hNET, or hDAT assays, respectively.
(§9) Following a 10 minute incubation, at 37° C., with radioligand, the cells were harvested by rapid filtration over a 96-well UniFilter GF/B plate, pretreated with 1% BSA, and washed 6 times with 650 μl wash buffer (ice cold PBS). Plates were dried overnight at 37° C., ˜45 μl of MicroScint™-20 (Perkin Elmer) added and incorporated radioactivity quantitated via liquid scintillation spectroscopy Inhibition curves were analyzed using GraphPad Prism Software package (GraphPad Software, Inc., San Diego, Calif.). IC50 values were generated from concentration response curves using the Sigmoidal Dose Response (variable slope) algorithm in Prism GraphPad.

NET [3] = molecular target: T2, NET (Homo sapiens, UniProt P23975); assay: hNET membrane radioligand binding assay (3H-nisoxetine); details: hNET membranes (HEK-293), 1.0 nM 3H-nisoxetine; for Ki: read-out: NET pKi (converted)
T2 sequence (P23975 whole entry): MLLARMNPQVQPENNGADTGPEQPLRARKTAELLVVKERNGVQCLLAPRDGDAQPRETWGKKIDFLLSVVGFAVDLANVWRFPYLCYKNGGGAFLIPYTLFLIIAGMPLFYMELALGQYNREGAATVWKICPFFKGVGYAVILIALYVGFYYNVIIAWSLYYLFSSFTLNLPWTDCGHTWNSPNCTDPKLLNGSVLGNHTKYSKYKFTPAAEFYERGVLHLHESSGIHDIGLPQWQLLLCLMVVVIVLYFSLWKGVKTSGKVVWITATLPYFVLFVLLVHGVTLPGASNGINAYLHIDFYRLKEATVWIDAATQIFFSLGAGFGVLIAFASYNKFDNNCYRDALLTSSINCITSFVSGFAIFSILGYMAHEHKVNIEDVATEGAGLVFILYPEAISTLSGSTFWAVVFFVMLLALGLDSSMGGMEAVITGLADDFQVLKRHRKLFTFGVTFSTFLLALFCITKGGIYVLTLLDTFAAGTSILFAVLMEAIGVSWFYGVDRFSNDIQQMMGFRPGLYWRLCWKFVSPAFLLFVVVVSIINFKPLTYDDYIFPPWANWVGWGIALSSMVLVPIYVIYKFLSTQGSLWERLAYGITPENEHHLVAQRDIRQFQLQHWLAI
Protocol: as §1, §2, §3, §4, §5

NET [4] = molecular target: T2, NET; assay: hNET neurotransmitter uptake assay (3H-NE); format: cell-based; details: norepinephrine reuptake inhibition, HEK-293 hNET cells, 3H-NE (no asterisk); for IC50: read-out: NET pIC50 (converted)
Protocol: as §6, §7, §8, §9

T1 sequence (P31645 whole entry): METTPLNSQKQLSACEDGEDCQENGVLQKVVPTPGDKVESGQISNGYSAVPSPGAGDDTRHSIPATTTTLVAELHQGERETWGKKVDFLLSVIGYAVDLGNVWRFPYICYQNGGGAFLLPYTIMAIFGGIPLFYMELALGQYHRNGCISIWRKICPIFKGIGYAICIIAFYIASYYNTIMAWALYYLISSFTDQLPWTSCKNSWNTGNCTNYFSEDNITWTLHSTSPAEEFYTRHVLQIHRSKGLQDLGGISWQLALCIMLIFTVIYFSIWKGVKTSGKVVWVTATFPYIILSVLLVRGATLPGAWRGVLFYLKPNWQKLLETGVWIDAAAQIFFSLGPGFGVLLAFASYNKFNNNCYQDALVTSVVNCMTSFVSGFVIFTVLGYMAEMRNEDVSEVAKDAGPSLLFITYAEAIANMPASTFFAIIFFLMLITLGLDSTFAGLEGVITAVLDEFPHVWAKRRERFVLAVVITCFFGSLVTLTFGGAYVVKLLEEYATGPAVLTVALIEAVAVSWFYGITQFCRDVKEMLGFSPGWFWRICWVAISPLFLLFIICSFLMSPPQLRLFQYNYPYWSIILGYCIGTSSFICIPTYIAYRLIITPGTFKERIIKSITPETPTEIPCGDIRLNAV

Row | SMILES | Ki (SERT [1]) [nM] | IC50 (SERT [2]) [nM] | Ki (NET [3]) [nM] | IC50 (NET [4]) [nM] | SERT pKi (SERT [1]) | NET pKi (NET [3]) | NET pIC50 (NET [4])
1 | Clc1ccccc1O[C@H](C1CCOCC1)[C@H]1CCNC1 [Example 13-4, (S)-3-[(R)-(2-Chlorophenoxy)(tetrahydropyran-4-yl)methyl]pyrrolidine] | ≤ 10 | ≤ 100 | ≤ 100 | ≤ 100 | – | – | –
2 | Fc1cccc(O[C@H](C2CCOCC2)[C@H]2CCNC2)c1Cl [Example 13-15, (S)-3-[(R)-(2-Chloro-3-fluorophenoxy)(tetrahydropyran-4-yl)methyl]pyrrolidine] | ≤ 10 | ≤ 10 | ≤ 10 | ≤ 10 | – | – | –
3 | Clc1cccc(O[C@H](C2CCOCC2)[C@@H]2CCNC2)c1Cl [Example 13-13, (R)-3-[(R)-(2,3-Dichlorophenoxy)(tetrahydropyran-4-yl)methyl]pyrrolidine] | ≤ 10 | ≤ 100 | ≤ 10 | ≤ 10 | – | – | –
4 | COC[C@H](Oc1ccc(Cl)cc1C)[C@H]1CCNC1 [Example 4-25, (S)-3-[(R)-1-(4-Chloro-2-methylphenoxy)-2-methoxyethyl]pyrrolidine] | ≤ 10 | ≤ 10 | ≤ 10 | ≤ 10 | – | – | –
5 | Clc1ccccc1O[C@@H](C1CCOCC1)[C@@H]1CCNC1 [Example 13-3, (R)-3-[(S)-(2-Chlorophenoxy)(tetrahydropyran-4-yl)methyl]pyrrolidine] | ≤ 10 | ≤ 100 | ≤ 10 | ≤ 10 | – | – | –
6 | COC[C@H](Oc1ccc(Cl)cc1Cl)[C@H]1CCNC1 [Example 3, (S)-3-[(R)-1-(2,4-Dichlorophenoxy)-2-methoxyethyl]pyrrolidine] | ≤ 10 | ≤ 10 | ≤ 10 | ≤ 10 | – | – | –
7 | Fc1cccc(O[C@@H](C2CCOCC2)[C@H]2CCNC2)c1Cl [Example 13-14, (S)-3-[(S)-(2-Chloro-3-fluorophenoxy)(tetrahydropyran-4-yl)methyl]pyrrolidine] | ≤ 10 | ≤ 100 | ≤ 10 | ≤ 10 | – | – | –
8 | COCC(Oc1cccc(Cl)c1Cl)C1CCNC1 (stereo not drawn) [Example 4-5, 3-[1-(2,3-Dichlorophenoxy)-2-methoxyethyl]pyrrolidine] | ≤ 10 | ≤ 100 | ≤ 10 | ≤ 10 | – | – | –
9 | Clc1ccccc1O[C@@H](C1CCOCC1)[C@H]1CCNC1 [Example 13-1, (S)-3-[(S)-(2-Chlorophenoxy)(tetrahydropyran-4-yl)methyl]pyrrolidine] | ≤ 100 | ≤ 1000 | ≤ 10 | ≤ 10 | – | – | –
10 | CCOC[C@@H](Oc1cccc(Cl)c1Cl)[C@H]1CCNC1 [Example 7-8, (S)-3-[(S)-1-(2,3-Dichlorophenoxy)-2-ethoxyethyl]pyrrolidine] | ≤ 10 | ≤ 10 | ≤ 10 | ≤ 10 | – | – | –
11 | COC[C@H](Oc1cccc(Cl)c1C)[C@H]1CCNC1 [Example 4-16, (S)-3-[(R)-1-(3-Chloro-2-methylphenoxy)-2-methoxyethyl]pyrrolidine] | ≤ 10 | ≤ 10 | ≤ 10 | ≤ 10 | – | – | –
12 | COCC(Oc1cccc(Cl)c1C(F)(F)F)C1CCNC1 (stereo not drawn) [Example 4-18, 3-[1-(3-Chloro-2-trifluoromethylphenoxy)-2-methoxyethyl]pyrrolidine] | ≤ 10 | ≤ 100 | ≤ 10 | ≤ 10 | – | – | –
13 | Clc1cc(Cl)cc(O[C@@H](C2CCOCC2)[C@@H]2CCNC2)c1 [Example 13-30, (R)-3-[(S)-(3,5-Dichlorophenoxy)(tetrahydropyran-4-yl)methyl]pyrrolidine] | ≤ 10 | ≤ 10 | ≤ 10 | ≤ 10 | – | – | –
14 | Clc1cccc(O[C@@H](C2CCOCC2)[C@@H]2CCNC2)c1Cl [Example 12, (R)-3-[(S)-(2,3-Dichlorophenoxy)(tetrahydropyran-4-yl)-methyl]pyrrolidine] | ≤ 10 | ≤ 10 | ≤ 10 | ≤ 10 | – | – | –
15 | COCC(Oc1cccc(Cl)c1Cl)C1CCNC1 (stereo not drawn) [Example 4-6, 3-[1-(2,3-Dichlorophenoxy)-2-methoxyethyl]pyrrolidine] | – | – | – | – | ≧8.0 | ≧8.0 | ≧8.0
16 | CCOC[C@H](Oc1cccc2ccccc12)[C@H]1CCNC1 [Example 11, (S)-3-[(R)-2-Ethoxy-1-(naphthalen-1-yloxy)ethyl]pyrrolidine] | – | ≤ 10 | – | ≤ 10 | – | – | –
17 | OC[C@@H](Oc1ccc(Cl)cc1Cl)[C@@H]1CCNC1 (stereo in doubt) [Example 2-1, (R)-2-(2,4-Dichlorophenoxy)-2-(S)-pyrrolidin-3-yl-ethanol] | – | ≤ 100 | – | ≤ 100 | – | – | –
